# According to PubChem BioAssay (NCI):
#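 Method: 48-hour compound exposure of cells in 96-well plates, five concentrations, linear interpolation of endpoints. GI50 marks 50% less growth. Definition used: TGI = concentration required for complete inhibition of growth.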
# Legend:
# Test in all cases: DTP human tumour cell line panel, 48 h
# [1] = test system: ACHN renal
# [2] = test system: EKVX NSCLC
# [3] = test system: IGROV1 ovarian
# [4] = test system: MCF7 breast
# [5] = test system: SK-MEL-28 melanoma
# [6] = test system: SK-OV-3 ovarian
# [7] = test system: SNB-75 CNS
# [8] = test system: U251 CNS
# [9] = test system: UACC-62 melanoma
# [10] = test system: SK-MEL-2 melanoma
SMILES,GI50 [1],TGI [1],GI50 [2],TGI [2],GI50 [3],TGI [3],GI50 [4],TGI [4],GI50 [5],TGI [5],GI50 [6],TGI [6],GI50 [7],TGI [7],GI50 [8],TGI [8],GI50 [9],TGI [9],TGI [10],GI50 [10]
C#Cc1c(/C=C/C(=O)OCC)ccc2ccccc12,14.6 µM,31.7 µM,28 µM,84.3 µM,5.77 µM,26.2 µM,24 µM,> 100 µM,13.7 µM,39.7 µM,58.8 µM,> 100 µM,10.1 µM,40.4 µM,11.2 µM,31.7 µM,11.6 µM,27.5 µM,–,–
Cc1cccc(C)c1NC(=O)C1C(=O)N(c2c(C)cccc2C)C(=O)/C1=N\N (centres undefined),–,> 100 µM,–,> 100 µM,–,> 100 µM,–,–,–,> 100 µM,–,> 100 µM,–,> 100 µM,–,> 100 µM,–,> 100 µM,> 100 µM,–
S=C(Nc1ccc(-c2nc3ccccc3[nH]2)cc1)Nc1ccc(-c2nc3ccccc3[nH]2)cc1,> 100 µM,> 100 µM,> 100 µM,> 100 µM,64.1 µM,> 100 µM,28.8 µM,> 100 µM,> 100 µM,> 100 µM,> 100 µM,> 100 µM,–,–,> 100 µM,> 100 µM,38.6 µM,> 100 µM,> 100 µM,> 100 µM
COC(=O)c1cccn1C(=O)n1cccc1,–,> 100 µM,–,> 100 µM,–,> 100 µM,–,–,–,> 100 µM,–,> 100 µM,–,> 100 µM,–,> 100 µM,–,> 100 µM,> 100 µM,–
CC(C)(C)c1cc(-n2c(-c3ccc(Cl)cc3)nc3cc(C(=O)Nc4ccc(Cl)cc4)ccc32)n[nH]1,5.18 µM,> 100 µM,–,–,5.65 µM,> 100 µM,3.93 µM,> 100 µM,64.2 µM,> 100 µM,21.6 µM,66.4 µM,7.08 µM,26.4 µM,6.63 µM,> 100 µM,2.75 µM,> 100 µM,9.58 µM,2.89 µM
O=Nc1ccc(NO)c2ccccc12,12.6 µM,25.9 µM,–,–,3.62 µM,16.4 µM,10.5 µM,31.3 µM,15.1 µM,28.6 µM,19.1 µM,35.6 µM,18.3 µM,32.4 µM,13.1 µM,26.1 µM,4 µM,16.4 µM,34.4 µM,18.3 µM
CC(=O)C1C(c2ccc(N(C)C)cc2)c2cc3c(cc2OC1(C)O)OCO3 (centres undefined),–,> 100 µM,–,> 100 µM,–,> 100 µM,–,–,–,> 100 µM,–,> 100 µM,–,68.2 µM,–,> 100 µM,–,> 100 µM,> 100 µM,–
